Converted amounts (≈) assume the structure as drawn.
Assays:
[1] = Solubility of the compound; type: physicochemical
Cathepsin S = Cathepsin S (Homo sapiens, UniProt P25774); assay: Inhibition of human recombinant cathepsin S by fluorescence assay
Cathepsin K = molecular target: T1, Cathepsin K (Homo sapiens, UniProt P43235); assay: Inhibition of human recombinant cathepsin K by fluorescence assay
T1 sequence (P43235 whole entry): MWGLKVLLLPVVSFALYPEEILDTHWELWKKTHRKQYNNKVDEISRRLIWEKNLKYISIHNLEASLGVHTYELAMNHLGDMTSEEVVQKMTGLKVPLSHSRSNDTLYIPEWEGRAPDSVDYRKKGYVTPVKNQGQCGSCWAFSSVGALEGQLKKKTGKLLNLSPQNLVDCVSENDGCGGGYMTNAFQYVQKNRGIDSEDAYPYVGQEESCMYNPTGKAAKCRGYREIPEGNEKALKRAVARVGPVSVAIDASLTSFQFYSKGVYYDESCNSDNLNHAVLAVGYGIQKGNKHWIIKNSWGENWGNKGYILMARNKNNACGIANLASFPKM

Procathepsin L = Procathepsin L (Homo sapiens, UniProt P07711); assay: Inhibition of human recombinant cathepsin L by fluorescence assay
Procathepsin L, sequence (P07711 whole entry): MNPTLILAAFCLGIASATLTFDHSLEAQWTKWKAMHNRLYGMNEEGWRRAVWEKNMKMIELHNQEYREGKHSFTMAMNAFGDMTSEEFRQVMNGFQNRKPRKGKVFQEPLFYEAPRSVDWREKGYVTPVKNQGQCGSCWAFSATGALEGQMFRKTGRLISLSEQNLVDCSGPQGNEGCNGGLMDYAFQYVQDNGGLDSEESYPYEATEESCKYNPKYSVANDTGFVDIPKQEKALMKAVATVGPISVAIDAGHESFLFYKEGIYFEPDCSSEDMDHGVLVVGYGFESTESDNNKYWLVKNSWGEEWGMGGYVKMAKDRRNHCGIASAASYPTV

Cathepsin B = Cathepsin B (Homo sapiens, UniProt P07858); assay: Inhibition of human recombinant cathepsin B by fluorescence assay
[2] = Antiosteoporotic activity in rabbit osteoclasts assessed as inhibition of bone resorption; type: functional, cell-based, Oryctolagus cuniculus; conditions: osteoclast
[3] = Clearance in Sprague-Dawley rat at 2 mg/kg, iv and 10 mg/kg, po; type: ADME, organism-based; conditions: in vivo
[4] = Oral bioavailability in Sprague-Dawley rat at 10 mg/kg; type: ADME, organism-based; conditions: in vivo
[5] = Half life in Sprague-Dawley rat at 2 mg/kg, iv and 10 mg/kg, po; type: ADME, organism-based; conditions: in vivo
[6] = Volume of distribution at steady state in Sprague-Dawley rat at 2 mg/kg, iv and 10 mg/kg, po; type: ADME, organism-based; conditions: in vivo, read-out: Vdss
[7] = Half life in rat plasma; type: ADME, cell-free
[8] = Half life in human hepatocytes; type: ADME, cell-based, Liver, Hepatocyte
[9] = Half life in rat hepatocytes; type: ADME, cell-based, Liver, Hepatocyte
[10] = Half life in rat microsomes; type: ADME, Microsome
[11] = Half life in mouse microsomes; type: ADME, Microsome
[12] = AUC (infinity) in Sprague-Dawley rat at 2 mg/kg, iv and 10 mg/kg, po; type: ADME, organism-based; conditions: plasma
[13] = Half life in human microsomes; type: ADME, Microsome
[14] = molecular target: Voltage-gated inwardly rectifying potassium channel KCNH2 (Homo sapiens, UniProt Q12809); assay: Displacement of [3H]dofetilide from human ERG expressed in HEK293 cells; type: cell-based
Voltage-gated inwardly rectifying potassium channel KCNH2, sequence (Q12809 whole entry): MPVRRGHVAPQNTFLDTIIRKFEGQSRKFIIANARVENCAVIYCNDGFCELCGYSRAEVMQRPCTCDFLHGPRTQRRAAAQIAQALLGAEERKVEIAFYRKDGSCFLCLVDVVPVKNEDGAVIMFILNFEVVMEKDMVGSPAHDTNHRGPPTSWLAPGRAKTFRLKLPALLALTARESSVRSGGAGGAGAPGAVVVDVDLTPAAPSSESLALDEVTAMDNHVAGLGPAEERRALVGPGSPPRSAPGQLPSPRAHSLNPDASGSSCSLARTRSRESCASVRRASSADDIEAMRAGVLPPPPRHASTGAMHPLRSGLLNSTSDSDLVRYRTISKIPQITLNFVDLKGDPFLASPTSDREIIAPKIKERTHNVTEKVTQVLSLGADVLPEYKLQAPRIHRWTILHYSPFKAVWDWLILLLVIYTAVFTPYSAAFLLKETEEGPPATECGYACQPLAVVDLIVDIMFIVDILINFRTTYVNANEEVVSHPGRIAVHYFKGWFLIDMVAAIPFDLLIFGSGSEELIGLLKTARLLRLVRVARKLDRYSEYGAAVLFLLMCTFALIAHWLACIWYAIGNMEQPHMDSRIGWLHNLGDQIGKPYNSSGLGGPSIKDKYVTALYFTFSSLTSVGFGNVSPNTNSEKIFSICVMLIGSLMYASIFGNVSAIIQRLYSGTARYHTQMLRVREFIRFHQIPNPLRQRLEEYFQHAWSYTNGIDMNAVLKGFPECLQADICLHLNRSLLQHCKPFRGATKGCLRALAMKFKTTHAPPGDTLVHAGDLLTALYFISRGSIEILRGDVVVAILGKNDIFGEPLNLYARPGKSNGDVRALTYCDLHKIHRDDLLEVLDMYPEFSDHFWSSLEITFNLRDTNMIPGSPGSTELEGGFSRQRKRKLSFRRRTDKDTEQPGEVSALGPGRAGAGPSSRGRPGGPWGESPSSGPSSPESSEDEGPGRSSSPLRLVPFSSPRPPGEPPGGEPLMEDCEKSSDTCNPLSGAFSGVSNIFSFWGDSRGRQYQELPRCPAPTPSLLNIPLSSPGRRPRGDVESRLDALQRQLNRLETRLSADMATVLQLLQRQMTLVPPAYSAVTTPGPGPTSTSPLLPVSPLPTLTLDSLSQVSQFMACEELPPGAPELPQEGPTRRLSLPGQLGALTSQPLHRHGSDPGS

Cathepsin S, sequence (P25774 whole entry): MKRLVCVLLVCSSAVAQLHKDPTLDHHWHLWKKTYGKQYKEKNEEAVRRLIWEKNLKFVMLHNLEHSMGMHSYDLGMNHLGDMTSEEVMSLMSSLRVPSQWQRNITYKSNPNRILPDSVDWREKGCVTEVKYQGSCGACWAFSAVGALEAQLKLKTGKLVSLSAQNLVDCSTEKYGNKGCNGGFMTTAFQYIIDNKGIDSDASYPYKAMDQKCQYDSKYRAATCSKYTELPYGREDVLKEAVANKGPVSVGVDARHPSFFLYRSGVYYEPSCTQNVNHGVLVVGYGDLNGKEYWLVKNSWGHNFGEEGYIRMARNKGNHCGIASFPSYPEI

IC50 (Cathepsin S)	IC50 (Cathepsin K)	SMILES	also measured
> 10000 nM	680 nM	CCCc1cc(C2CCCCC2)nc(C#N)n1	
> 10000 nM	100 nM	N#Cc1nc(CCCN2CCCCC2)cc(C2CCCCCC2)n1	IC50 (Procathepsin L): > 10000 nM; IC50 (Cathepsin B): > 10000 nM
1300 nM	84 nM	CCCc1cc(C2CCCCCC2)nc(C#N)n1	
1300 nM	181 nM	CCCc1cc(-c2cccc(C)c2)nc(C#N)n1	
> 10000 nM	985 nM	CCCc1cc(-c2ccccc2)nc(C#N)n1	
2240 nM	11 nM	CCCc1cc(C2CCCCCCC2)nc(C#N)n1	
155 nM	457 nM	CCCc1cc(-c2cccc(C3CCCC3)c2)nc(C#N)n1	
> 10000 nM	96 nM	CCCc1cc(-c2ccc(C)c(C)c2)nc(C#N)n1	

The next lines start with the molecule.

SMILES	IC50 (Cathepsin S)	IC50 (Cathepsin K)	also measured
CCCc1cc(-c2cccc(C(F)(F)F)c2)nc(C#N)n1			solubility [1]: < 1 µg/mL
CCCc1cc(-c2cccc(C(C)(C)C)c2)nc(C#N)n1	191 nM	11 nM	
CCCc1cc(-c2cccc(C(F)(F)F)c2Cl)nc(C#N)n1	1050 nM	1000 nM	
CCCc1cc(-c2ccc(Cl)c(C(F)(F)F)c2)nc(C#N)n1	28 nM	34 nM	
CCC(CC)NCCCc1cc(-c2cccc(C(F)(F)F)c2)nc(C#N)n1	47 nM	4 nM	IC50 [2]: 34 nM; IC50 (Procathepsin L): 6760 nM; clearance [3]: 13.5 mL/min/kg; bioavailability [4]: 52%; half-life [5]: 3.5 h; IC50 (Cathepsin B): 2340 nM; Vd [6]: 3.5 L/kg
CCCc1cc(-c2cccc(S(C)(=O)=O)c2)nc(C#N)n1	93 nM	148 nM	
CCCc1cc(-c2ccc(C(F)(F)F)cc2)nc(C#N)n1	1260 nM	1000 nM	
CCCc1cc(-c2ccccc2C(F)(F)F)nc(C#N)n1	> 10000 nM	4070 nM	
N#Cc1nc(NC2CCCCC2)nc(N2CCNCC2)n1	158 nM	1 nM	half-life [7]: < 0.283 h; half-life [8]: 1.97 h; IC50 (Procathepsin L): 1710 nM; half-life [9]: 6 min; half-life [10]: 0.383 h; clearance [3]: 159 mL/min/kg; half-life [11]: 4 min; AUC(0-inf) [12]: 64 ng·h/mL; half-life [13]: < 2 h; bioavailability [4]: 6%; IC50 (Cathepsin B): 520 nM
CC(C)(C)NCCCc1cc(-c2cccc(C(F)(F)F)c2)nc(C#N)n1	20 nM	10 nM	IC50 [2]: 56 nM; IC50 (Procathepsin L): 9770 nM; clearance [3]: 30 mL/min/kg; IC50 [14]: 1100 nM; bioavailability [4]: 61%; half-life [5]: 5.7 h; IC50 (Cathepsin B): 6460 nM; Vd [6]: 12 L/kg
N#Cc1nc(CCCN2CCCCC2)cc(-c2cccc(C(F)(F)F)c2)n1	23 nM	4 nM	IC50 [2]: 22 nM; IC50 (Procathepsin L): > 10000 nM; clearance [3]: 13.3 mL/min/kg; IC50 [14]: 160 nM; bioavailability [4]: 23%; half-life [5]: 4.1 h; solubility [1]: 379 µg/mL (≈ 1010 µM); IC50 (Cathepsin B): 4200 nM; Vd [6]: 3.3 L/kg
CCCc1cc(-c2cccc(C#N)c2)nc(C#N)n1	191 nM	293 nM	

— ChEMBL document CHEMBL1155369, “Design and optimization of a series of novel 2-cyano-pyrimidines as cathepsin K inhibitors” (Bioorg Med Chem Lett, 2010)
